Experimental data published in patent US20250152585A1, “PHARMACEUTICAL COMPOUND” (Duke Street Bio Limited, priority 2022, published 2025).
Read-outs that look alike come from different tables or passages of the source.

What was measured:
[1] = molecular target: T1, full length N-terminally FLAG-tagged PARP1 (Homo sapiens, UniProt P09874); test: PARP1 biochemical DELFIA assay (auto-PARylation); design: recombinant full length human N-terminally FLAG-tagged PARP1
[2] = molecular target: T1, full length N-terminally FLAG-tagged PARP1; test: PARP1 probe displacement HTRF assay; conditions: for Selectivity: PARP1 over PARP2, ratio Kd (PARP2)/Kd (PARP1); for Kd: binned Kd
[3] = molecular target: T2, N-terminally FLAG-tagged PARP2 (amino acids 1-583) (Homo sapiens, UniProt Q9UGN5); test: PARP2 probe displacement HTRF assay; type: binding; conditions: binned Kd
T2 construct: N-terminally FLAG-tagged PARP2 (amino acids 1-583)
Description: Data analysis was performed identical as for PARP1.

[4] = binned IC50, PARP1 biochemical DELFIA assay
[5] = read-out: PARP1 HTRF, PARP1 probe displacement HTRF
[6] = binned IC50, biochemical auto-PARylation assay
[7] = read-out: PARP1 HTRF, probe displacement HTRF
[8] = PARP1 HTRF, probe displacement HTRF
[9] = PARP1 HTRF, PARP1 probe displacement HTRF

T1 sequence (P09874 whole entry): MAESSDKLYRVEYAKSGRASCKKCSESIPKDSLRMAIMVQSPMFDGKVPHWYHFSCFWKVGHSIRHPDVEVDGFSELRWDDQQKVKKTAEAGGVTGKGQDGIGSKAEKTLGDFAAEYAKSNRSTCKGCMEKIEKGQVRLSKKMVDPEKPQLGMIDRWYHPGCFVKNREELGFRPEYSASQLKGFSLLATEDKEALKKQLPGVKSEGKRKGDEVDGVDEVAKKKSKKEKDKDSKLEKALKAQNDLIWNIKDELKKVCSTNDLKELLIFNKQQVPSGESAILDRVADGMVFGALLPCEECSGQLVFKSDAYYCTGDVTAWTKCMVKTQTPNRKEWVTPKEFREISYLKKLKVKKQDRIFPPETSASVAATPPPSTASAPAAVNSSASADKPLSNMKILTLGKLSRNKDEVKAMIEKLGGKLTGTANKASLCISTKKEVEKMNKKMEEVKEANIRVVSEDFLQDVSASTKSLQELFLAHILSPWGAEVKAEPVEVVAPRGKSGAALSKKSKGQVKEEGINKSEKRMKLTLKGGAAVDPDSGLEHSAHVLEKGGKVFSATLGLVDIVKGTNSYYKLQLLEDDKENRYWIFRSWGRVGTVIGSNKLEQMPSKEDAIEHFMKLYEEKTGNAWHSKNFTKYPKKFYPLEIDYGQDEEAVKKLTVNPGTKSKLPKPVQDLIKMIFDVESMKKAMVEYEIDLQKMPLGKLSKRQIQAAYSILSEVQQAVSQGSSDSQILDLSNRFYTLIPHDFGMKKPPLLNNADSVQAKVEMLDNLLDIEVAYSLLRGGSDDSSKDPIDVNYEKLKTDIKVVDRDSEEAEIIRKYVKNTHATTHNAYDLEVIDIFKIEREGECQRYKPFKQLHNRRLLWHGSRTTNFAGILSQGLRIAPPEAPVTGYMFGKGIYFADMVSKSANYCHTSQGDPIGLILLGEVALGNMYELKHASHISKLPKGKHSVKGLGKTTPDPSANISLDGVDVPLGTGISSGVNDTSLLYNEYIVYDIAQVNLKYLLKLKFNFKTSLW
T2 sequence (Q9UGN5 whole entry, the tested form may be a part): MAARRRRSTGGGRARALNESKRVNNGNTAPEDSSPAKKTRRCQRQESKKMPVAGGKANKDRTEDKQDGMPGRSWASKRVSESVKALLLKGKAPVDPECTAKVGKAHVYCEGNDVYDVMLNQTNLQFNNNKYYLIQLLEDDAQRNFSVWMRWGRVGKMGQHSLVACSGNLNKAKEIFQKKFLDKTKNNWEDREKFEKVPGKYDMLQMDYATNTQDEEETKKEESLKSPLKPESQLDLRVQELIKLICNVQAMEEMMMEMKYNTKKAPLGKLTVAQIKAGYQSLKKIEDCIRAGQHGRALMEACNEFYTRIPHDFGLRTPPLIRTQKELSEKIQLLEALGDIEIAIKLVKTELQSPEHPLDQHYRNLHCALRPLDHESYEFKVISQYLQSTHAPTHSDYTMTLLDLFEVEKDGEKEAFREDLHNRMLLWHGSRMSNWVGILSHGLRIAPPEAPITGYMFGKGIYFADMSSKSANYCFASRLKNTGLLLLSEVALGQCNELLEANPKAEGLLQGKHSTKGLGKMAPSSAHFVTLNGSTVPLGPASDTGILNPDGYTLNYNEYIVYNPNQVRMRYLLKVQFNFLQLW

Compound	IC50 [1, 4]	Selectivity ([2]; probe displacement HTRF)	Kd [2, 5]	Kd ([3]; PARP2 probe displacement HTRF)	IC50 [1, 6]	Kd [2, 7]	Kd ([3]; probe displacement HTRF)	Kd [2, 8]	Kd [2, 9]
N#Cc1ccc(N2CCC(N3CCC(c4nc5ccccc5c(=O)[nH]4)C3)CC2)nc1 (single isomer, unassigned) [Compound 55a]	< 10 nM	+++ (+++ indicate a value of at least 100)	< 10 nM	1000 to 10000 nM	–	–	–	–	–
O=c1[nH]c(C2CCN(C3CCN(c4ccc(Cl)cc4)CC3)C2)nc2ccccc12 (single isomer, unassigned) [Compound 43a]	100 to 1000 nM	− (− indicates a value of less than 10)	10 to 100 nM	100 to 1000 nM	–	–	–	–	–
CNC(=O)c1ccc(N2CCC(N3CCC(c4ccc(CC(F)(F)F)c(=O)[nH]4)C3)CC2)cn1 (racemic) [Compound 243rac]	–	++ (++ indicates a value of 50 to less than 100)	–	–	10 to 100 nM	10 to 100 nM	> 10000 nM	–	–
CNC(=O)c1ccc(N2CCC(N3CCC(c4cc5cc(OC)ccc5c(=O)[nH]4)C3)CC2)cn1 (racemic) [Compound 334rac]	–	++ (++ indicates a value of 50 to less than 100)	–	–	< 10 nM	10 to 100 nM	1000 to 10000 nM	–	–
CS(=O)(=O)Nc1ccc(N2CCC(N3CCC(c4cc5ccccc5c(=O)[nH]4)C3)CC2)cc1 (single isomer, unassigned) [Compound 251b]	–	+ (+ indicates a value of 10 to less than 50)	–	–	10 to 100 nM	10 to 100 nM	100 to 1000 nM	–	–
O=c1[nH]c(C2CCN(C3CCN(c4ccc(Cl)cc4)CC3)C2)nc2ccccc12 (single isomer, unassigned) [Compound 43b]	< 10 nM	+ (+ indicates a value of 10 to less than 50)	< 10 nM	100 to 1000 nM	–	–	–	–	–
CCc1ccc(C2CCN(C3CCN(c4ccc(C(=O)NC)nc4C)CC3)C2)[nH]c1=O (single isomer, unassigned) [Compound 133b]	10 to 100 nM	+++ (+++ indicate a value of at least 100)	10 to 100 nM	> 10000 nM	–	–	–	–	–
CNC(=O)c1ccc(N2CCC(N3CC4(c5nc6ncccc6c(=O)[nH]5)CC3C4)CC2)cn1 [Compound 311]	–	+++ (+++ indicate a value of at least 100)	–	–	< 10 nM	–	1000 to 10000 nM	< 10 nM	–
CNC(=O)c1ncc(N2CCC(N3CCC(c4cc5ccc(F)cc5c(=O)[nH]4)C3)CC2)cc1F (single isomer, unassigned) [Compound 395b]	–	++ (++ indicates a value of 50 to less than 100)	–	–	< 10 nM	< 10 nM	10 to 100 nM	–	–
CCCc1ccc(C2CCN(C3CCN(c4ccc(C(=O)NC)nc4F)CC3)C2)[nH]c1=O (single isomer, unassigned) [Compound 269a]	–	+++ (+++ indicate a value of at least 100)	–	–	< 10 nM	< 10 nM	1000 to 10000 nM	–	–
CNC(=O)c1ccc(N2CCC(N3CCC(c4nc5ccccc5c(=O)[nH]4)C3)CC2)nc1 (single isomer, unassigned) [Compound 46b]	100 to 1000 nM	− (− indicates a value of less than 10)	100 to 1000 nM	100 to 1000 nM	–	–	–	–	–
CNC(=O)c1ccc(OCCCN2CCC(c3nc4ccccc4c(=O)[nH]3)CC2)cn1 [Compound 2, N-methyl-5-(3-(4-(4-oxo-3,4-dihydroquinazolin-2-yl)piperidin-1-yl)propoxy)picolinamide]	< 10 nM	+++ (+++ indicate a value of at least 100)	–	1000 to 10000 nM	–	–	–	–	< 10 nM
CNC(=O)c1ncc(N2CCC(N3CCC(c4cc5ccc(F)cc5c(=O)[nH]4)C3)CC2)c(C)n1 (single isomer, unassigned) [Compound 265a]	–	+++ (+++ indicate a value of at least 100)	–	–	< 10 nM	< 10 nM	1000 to 10000 nM	–	–
O=c1[nH]c2ccc(N3CCC(N4CCC(c5cc6ccccc6c(=O)[nH]5)C4)CC3)cc2[nH]1 (racemic) [Compound 413rac]	–	+++ (+++ indicate a value of at least 100)	–	–	< 10 nM	< 10 nM	100 to 1000 nM	–	–
CNC(=O)c1ccc(N2CCC(N3CCCC(F)(c4nc5ccccc5c(=O)[nH]4)C3)CC2)cn1 (single isomer, unassigned) [Compound 71b]	10 to 100 nM	+++ (+++ indicate a value of at least 100)	10 to 100 nM	> 10000 nM	–	–	–	–	–
CNC(=O)c1ccc(N2CCC(N3CCC(c4cc5cccc(F)c5c(=O)[nH]4)C3)CC2)c(F)n1 (single isomer, unassigned) [Compound 184a, 6-fluoro-5-[4-[3-(8-fluoro-1-oxo-2H-isoquinolin-3-yl)pyrrolidin-1-yl]piperidin-1-yl]-N-methylpyridine-2-carboxamide]	< 10 nM	+++ (+++ indicate a value of at least 100)	–	1000 to 10000 nM	–	–	–	–	< 10 nM
CNC(=O)c1ccc(N2CCC(N3CCC(c4cc5cccc(F)c5c(=O)[nH]4)C3)CC2)cn1 (single isomer, unassigned) [Compound 136a, 5-{4-[3-(8-fluoro-1-oxo-2H-isoquinolin-3-yl)pyrrolidin-1-yl]piperidin-1-yl}-N-methylpyridine-2-carboxamide]	< 10 nM	+++ (+++ indicate a value of at least 100)	–	100 to 1000 nM	–	–	–	–	< 10 nM
CNC(=O)c1ccc(N2CCC(N3CC4(c5nc6ccncc6c(=O)[nH]5)CC3C4)CC2)c(F)n1 [Compound 305]	–	+++ (+++ indicate a value of at least 100)	–	–	< 10 nM	–	> 10000 nM	< 10 nM	–
CNC(=O)c1ccc(N2CCC(N3CCC(c4ccc(OC)c(=O)[nH]4)C3)CC2)c(C(F)(F)F)n1 (single isomer, unassigned) [Compound 152b]	10 to 100 nM	++ (++ indicates a value of 50 to less than 100)	10 to 100 nM	> 10000 nM	–	–	–	–	–
CNC(=O)c1ccc(N2CCC(N3CCC(c4cc5c(c(C(F)(F)F)nn5C)c(=O)[nH]4)C3)CC2)c(F)n1 (single isomer, unassigned) [Compound 407b]	–	+ (+ indicates a value of 10 to less than 50)	–	–	< 10 nM	< 10 nM	< 10 nM	–	–
CCc1ccc(C2CCN(C3CCN(c4ccc(C(=O)NC5CC5)nc4C#N)CC3)C2)[nH]c1=O (single isomer, unassigned) [Compound 409b]	–	+++ (+++ indicate a value of at least 100)	–	–	< 10 nM	< 10 nM	100 to 1000 nM	–	–
CNC(=O)c1ccc(N2CCC(N3CCC(c4nc5c(F)ccc(F)c5c(=O)[nH]4)C3)CC2)cn1 (single isomer, unassigned) [Compound 182a]	10 to 100 nM	+ (+ indicates a value of 10 to less than 50)	10 to 100 nM	100 to 1000 nM	–	–	–	–	–
CNC(=O)c1ccc(N2CCC(N3CC4(c5nc6ccccc6c(=O)[nH]5)CCC3C4)CC2)cn1 (single isomer, unassigned) [Compound 245b]	–	+++ (+++ indicate a value of at least 100)	–	–	10 to 100 nM	10 to 100 nM	> 10000 nM	–	–
CNC(=O)c1ccc(OCCN2CCCC(c3nc4ccccc4c(=O)[nH]3)C2)cn1 (single isomer, unassigned) [Compound 65b]	100 to 1000 nM	+ (+ indicates a value of 10 to less than 50)	100 to 1000 nM	1000 to 10000 nM	–	–	–	–	–
CNC(=O)c1ccc(N2CCC(N3CCC(c4cc5ncc(F)cc5c(=O)[nH]4)C3)CC2)cn1 (single isomer, unassigned) [Compound 315b]	–	+++ (+++ indicate a value of at least 100)	–	–	< 10 nM	< 10 nM	100 to 1000 nM	–	–
CNC(=O)c1ccc(N2CCC(N3CCC(c4cc5cccnc5c(=O)[nH]4)C3)CC2)cn1 (racemic) [Compound 203rac]	< 10 nM	+++ (+++ indicate a value of at least 100)	< 10 nM	> 10000 nM	–	–	–	–	–
